# Test results from patent publication US10919934B2, “Compositions and methods for managing respiratory conditions” (Emory University, priority 2017, dated 2021).
# Where a SMILES comes first, the peptide text is derived from it.
# T1: claudin-18 (Rattus norvegicus, UniProt Q5I0E5)
# T1 construct: endogenous in cells; host or cells: primary alveolar epithelial cells (AECs) from alcohol-fed rats
# T1 sequence (Q5I0E5 1-261): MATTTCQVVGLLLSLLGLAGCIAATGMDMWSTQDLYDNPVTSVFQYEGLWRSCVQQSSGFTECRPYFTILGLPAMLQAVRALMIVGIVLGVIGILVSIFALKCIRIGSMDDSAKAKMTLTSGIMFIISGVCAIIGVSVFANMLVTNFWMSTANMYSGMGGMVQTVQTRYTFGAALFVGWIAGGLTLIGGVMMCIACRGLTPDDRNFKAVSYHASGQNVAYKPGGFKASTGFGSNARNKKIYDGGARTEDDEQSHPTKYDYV
# T2: claudin-5 (Rattus norvegicus, UniProt Q9JKD6)
# T2 construct: endogenous in cells; host or cells: primary alveolar epithelial cells (AECs) from alcohol-fed rats
# T2 sequence (Q9JKD6 1-218): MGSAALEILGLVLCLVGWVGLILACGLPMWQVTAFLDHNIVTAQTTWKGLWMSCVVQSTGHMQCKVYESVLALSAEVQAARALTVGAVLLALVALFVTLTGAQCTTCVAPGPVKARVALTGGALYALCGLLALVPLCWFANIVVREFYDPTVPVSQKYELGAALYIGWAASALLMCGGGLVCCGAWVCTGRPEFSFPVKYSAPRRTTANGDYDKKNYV
# Tests used:
# [1] = tested on: control AECs; experiment: Paracellular flux of tracers, control AECs; type: cell-based, rat; settings: 10 mM peptide, 16 h
# Protocol: (§1) The difference between AECs isolated from control- and alcohol-fed animals (alcohol-exposed AECs) was evaluated using two different measures of barrier function: transepithelial resistance (TER) and paracellular flux to soluble tracer molecules. […] Thus, alcohol exposure has a deleterious effect on AEC tight junctions.
# [2] = tested on: alcohol-exposed AECs; experiment: Transepithelial resistance (TER), alcohol-exposed AECs; type: cell-based, rat; settings: 10 mM peptide, 16 h (overnight); alcohol-exposed AECs on Transwell
# Protocol: (§2) AECs isolated from control were cultured on Transwell permeable supports for 5 days and then either untreated (un), or incubated with 10 mM control peptide (con; Ac-LYQY(SEQ ID NO:35)-NH2) or a claudin-5 extracellular domain mimetic peptide (C5; Ac-EFYDP(SEQ ID NO:1)-NH2) for 16 h. The cells were examined for barrier function by transepithelial resistance (TER).
# as §1
# [3] = tested on: claudin-1; experiment: Claudin-1 content, alcohol-exposed AECs; type: cell-based, rat; settings: peptide-treated alcohol-exposed AECs
# Text: By contrast, control AECs were unaffected by the Ac-EFYDP(SEQ ID NO: 1)-NH2 peptide (FIG. 7A, C, E). A control peptide, Ac-LYQY (SEQ ID NO:35)-NH2, had no effect on AEC barrier function in either control or alcohol-exposed cells. The ability of Ac-EFYDP(SEQ ID NO: 1)-NH2 to improve the barrier function of alcohol-exposed AECs correlated with a decrease in tight-junction spike formation (FIG. 7G) and a specific decrease in total claudin-5 content (FIG. 7I). Claudin-18 and ZO-1 were unaffected (FIG. 7I) as was claudin-1.
# [4] = tested on: alcohol-exposed AECs; experiment: Paracellular flux of tracers, alcohol-exposed AECs; type: cell-based, rat; settings: 10 mM peptide, 16 h
# Protocol: as §1
# [5] = biological target: T1, claudin-18; experiment: Immunoblot for claudin-18, alcohol-exposed AECs; type: cell-based; settings: peptide-treated alcohol-exposed AECs
# [6] = tested on: alcohol-exposed AECs; experiment: Quantification of % cells with 3 or more tight-junction spikes, alcohol-exposed AECs; type: cell-based, rat; settings: for tight junction spikes versus control shRNA: alcohol exposed AECs transduced with lentiviral shRNA
# Protocol: Morphologic disruption of tight junctions was not restricted to claudin-18, as claudin-5 and ZO-1 were also impaired in YFP-claudin-5-transduced AECs. To determine whether ZO-1 disruption was specifically linked to increased claudin-5, the effect of increased YFP-claudin-3 on ZO-1 localization by AECs was examined. […] In a complementary experiment, it was determined whether the ability of alcohol to induce formation of tight-junction spikes was antagonized by depleting claudin-5 using shRNA. […] Thus, claudin-5 was […] to enhance formation of tight-junction spikes.
# (§3) To further confirm that spikes were sites of active claudin vesicle formation and fusion, the effects of the dynamin inhibitor Dynasore14 was examined on spike formation by alcohol-exposed AECs.
# [7] = biological target: T2, claudin-5; experiment: Immunoblot for claudin-5, alcohol-exposed AECs; type: cell-based; settings: peptide-treated cells from alcohol-fed rats; P=0.042 versus untreated, P=0.016 versus control
# [8] = tested on: control AECs; experiment: Transepithelial resistance (TER), control AECs; type: cell-based, rat; settings: 10 mM peptide, 16 h
# Protocol: as §2, §1
# [9] = tested on: ZO-1; experiment: Immunoblot for ZO-1, alcohol-exposed AECs; type: cell-based, rat; settings: peptide-treated alcohol-exposed AECs
# [10] = tested on: claudin-5; settings: normal AECs treated with inhibitor; cited from earlier work
# [11] = tested on: control AECs; settings: normal AECs treated with inhibitor; cited from earlier work
# [12] = tested on: control AECs; experiment: Quantification of % cells with 3 or more tight-junction spikes, control AECs; type: cell-based, rat; settings: Dynasore treatment
# Text: as §3
# [13] = tested on: alcohol-exposed AECs; experiment: Live-cell imaging of YFP-claudin-18 in alcohol-exposed AECs; type: cell-based, rat; settings: Dynasore-treated alcohol-exposed AECs
# Text: as §3
# [14] = tested on: claudin-3 and claudin-4; settings: cited from earlier work
molecule,measurement,setting,value
"CC(=O)NC(CCC(=O)O)C(=O)NC(Cc1ccccc1)C(=O)NC(Cc1ccc(O)cc1)C(=O)NC(CC(=O)O)C(=O)N1CCCC1C(N)=O (stereo not shown) [Ac-EFYDP(SEQ ID NO: 1)-NH2, Ac-EFYDP(SEQ ID NO:1)-NH2] (Ac-EFYDP-NH2; configuration not given here)",paracellular flux of 10 kDa Texas Red dextran,[1],unaffected
same,paracellular flux of calcein,[1],unaffected
same,TER,[2],increase
same,claudin-1 content,[3],unaffected
same,paracellular flux of 10 kDa Texas Red dextran,[4],decrease
same,paracellular flux of calcein,[4],decrease
same,claudin-18 content (immunoblot),[5],unaffected
same,tight-junction spike formation,"[6]; peptide-treated alcohol-exposed AECs, P<0.001 versus untreated and control peptide",decrease
same,total claudin-5 content (immunoblot),[7],significant and specific decrease
same,TER,[8],unaffected
same,ZO-1 content (immunoblot),[9],unaffected
"Ac-LYQY(SEQ ID NO:35)-NH2 (Ac-LYQY-NH2) [Ac-LYQY (SEQ ID NO:35)-NH2, control peptide, reference compound]",paracellular flux of 10 kDa Texas Red dextran,[1],no effect
same,paracellular flux of calcein,[1],no effect
same,TER,[2],no effect
same,paracellular flux of 10 kDa Texas Red dextran,[4],no effect
same,paracellular flux of calcein,[4],no effect
same,TER,[8],no effect
Cc1ccc2nc(NCCN)c3ncc(C)n3c2c1 [BMS-345541],claudin-5 expression,[10],increased
same,formation of tight-junction spikes,[11],increased
"O=C(NN=Cc1ccc(O)c(O)c1)c1cc2ccccc2cc1O [Dynasore, N′-(3,4-dihydroxybenzylidene)-3-hydroxy-2-naphthohydrazide]",% cells containing 3 or more tight junction spikes oriented towards the nucleus,"[6]; 160 μM for 4 h, cells from alcohol fed rats, P=0.002",significantly decreased
same,spike formation by control cells,[12],did not have a significant effect
same,punctate YFP-claudin-18 labelling,[13],increase
Ac-DFYNP-NH2,effectiveness of D-amino acid version relative to corresponding L-amino acid version,[14],10-100 fold
"claudin-5 shRNA1: lentiviral short hairpin RNA targeting claudin-5, 616-624, SEQ ID NO: 27/28 (nucleic acid) chain 1: CCCCCCAACGGCGATTACGACAATTCAAGAGATTGTCGTAATCGCCGTTGGTTTTTGG chain 2: CCAAAAACCAACGGCGATTACGACAATCTCTTGAATTGTCGTAATCGCCGTTGGGGGG",tight junction spikes versus control shRNA,[6],significantly fewer
"shRNA2: lentiviral short hairpin RNA targeting claudin-5, 1594-1612, SEQ ID NO: 29/30 (nucleic acid) chain 1: CCCCCCACCAAACTGCCGCTAACTTCAAGAGAGTTAGCGGCAGTTTGGTGGTTTTTGG chain 2: CCAAAAACCACCAAACTGCCGCTAACTCTCTTGAAGTTAGCGGCAGTTTGGTGGGGGG",tight junction spikes versus control shRNA,[6],trend towards decreased spikes
